Results: the NIST ThermoML archive (doi:10.1016/j.jct.2004.05.006)
Numbers after ± are expanded uncertainties. One block for each compound: values may come before it.

How the values were obtained:
[1] = 298.15 K; 101.33 kPa; Liquid
[2] = excess molar enthalpy (molar enthalpy of mixing); xn = mol fraction of the nth substance listed; conditions: 298.15 K, 101.3 kPa, Liquid, Flow calorimetry

- mass density [1]: 745.38 ± 0.78 kg/m3
Structure (SMILES): CCCCCCCCCCCC [dodecane]

- mass density [1]: 735.69 ± 0.73 kg/m3
Structure (SMILES): COC(C)(C)C [2-methoxy-2-methylpropane]

- mass density [1]: 726.31 ± 0.81 kg/m3
Structure (SMILES): CCCCCCCCCC [decane]

- mass density [1]: 649.78 ± 0.94 kg/m3
Structure (SMILES): CCCC(C)C [2-methylpentane]

- excess molar enthalpy ([2]; x2 = 0.0532): 0.00897 ± 0.000335 kcal/mol
- excess molar enthalpy ([2]; x2 = 0.1063): 0.0214 ± 0.000454 kcal/mol
- excess molar enthalpy ([2]; x2 = 0.1589): 0.0336 ± 0.000574 kcal/mol
- excess molar enthalpy ([2]; x2 = 0.2113): 0.0437 ± 0.000669 kcal/mol
- excess molar enthalpy ([2]; x2 = 0.2633): 0.0523 ± 0.000765 kcal/mol
- excess molar enthalpy ([2]; x2 = 0.315): 0.0597 ± 0.000837 kcal/mol
- excess molar enthalpy ([2]; x2 = 0.3658): 0.065 ± 0.000884 kcal/mol
- excess molar enthalpy ([2]; x2 = 0.4165): 0.0691 ± 0.000932 kcal/mol
- excess molar enthalpy ([2]; x2 = 0.4667): 0.0717 ± 0.000956 kcal/mol
- excess molar enthalpy ([2]; x2 = 0.5174): 0.0725 ± 0.000956 kcal/mol
- excess molar enthalpy ([2]; x2 = 0.5673): 0.0711 ± 0.000956 kcal/mol
- excess molar enthalpy ([2]; x2 = 0.6165): 0.0696 ± 0.000932 kcal/mol
- excess molar enthalpy ([2]; x2 = 0.6652): 0.0659 ± 0.000908 kcal/mol
- excess molar enthalpy ([2]; x2 = 0.7143): 0.0608 ± 0.000837 kcal/mol
- excess molar enthalpy ([2]; x2 = 0.7628): 0.0542 ± 0.000789 kcal/mol
- excess molar enthalpy ([2]; x2 = 0.81): 0.0462 ± 0.000693 kcal/mol
- excess molar enthalpy ([2]; x2 = 0.8548): 0.0376 ± 0.000621 kcal/mol
- excess molar enthalpy ([2]; x2 = 0.906): 0.0257 ± 0.000502 kcal/mol
- excess molar enthalpy ([2]; x2 = 0.9531): 0.0136 ± 0.000382 kcal/mol
Structure (SMILES): CCCC(C)C [2-methylpentane] + COC(C)(C)C
